Test results: PMC11187126, “Structure and dynamics of the pyroglutamylated RF-amide peptide QRFP receptor GPR103” (Nature Communications, 2024)
Like-named read-outs stand apart in the source and are kept apart here. No end group written: not given here.

Target: T1, GPR103 L193^ECL2A (Homo sapiens, UniProt Q96P65, L193A)
T1 construct: we used human full-length QRFPR-encoding plasmids; expressed in transfected cells; host or cells: HEK293 cells, pCAGGS vector
T1 sequence (Q96P65 1-431 L193A): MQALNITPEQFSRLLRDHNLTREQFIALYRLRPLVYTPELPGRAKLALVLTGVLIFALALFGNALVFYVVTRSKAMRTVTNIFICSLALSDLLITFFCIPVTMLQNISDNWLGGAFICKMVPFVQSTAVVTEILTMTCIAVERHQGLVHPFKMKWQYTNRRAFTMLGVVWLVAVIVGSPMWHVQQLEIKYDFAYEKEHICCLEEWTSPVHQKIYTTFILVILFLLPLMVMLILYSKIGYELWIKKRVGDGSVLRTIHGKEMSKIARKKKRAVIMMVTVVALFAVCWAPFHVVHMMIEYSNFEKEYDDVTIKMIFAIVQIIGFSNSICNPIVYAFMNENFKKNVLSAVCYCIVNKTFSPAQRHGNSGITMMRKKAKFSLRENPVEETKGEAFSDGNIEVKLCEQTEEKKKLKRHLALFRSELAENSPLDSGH
Assay: TGFα shedding assay; Exp. level WT (1:50)
Type: cell-based

Emax (Exp. #1): 89.95 % WT
Emax (Exp. #2): 86.94 % WT
Emax (Exp. #3): 94.38 % WT
Emax (mean, read-out: Emax): 90.4%
EC50 (n = 3): 182 nM
Emax (n = 3, read-out: Emax): 93.8 ± 1.8%
Substance: TSGPLGNLAEELNGYSRKKGGFSFRF-NH2 [QRFP26]
